Conditions in all cases: in vivo
Experiment [1] relates to ThFhb7. The arrangement: species or system Thinopyrum ponticum.
For experiment [2], the system named is F. graminearum.
Experiment [3] deals with F. graminearum. The source holds these as a separate data set.
Experiment [4] deals with F. graminearum. This is another data set of the same source.

As for `CC(=O)O[C@@H]1C[C@]2(C)[C@@]3(CO)[C@H](O)C(=O)C(C)=C[C@H]3O[C@H]1[C@@]21CO1` [3-ADON, 3-acetyl-deoxynivalenol], in experiment [1], the “conversion into glutathione adducts in transgenic wheat overexpressing ThFhb7” value (“conversion into glutathione adducts” below) was “efficiently catalyzed into glutathione adducts”.
On to `CC1=C[C@H]2O[C@@H]3[C@H](O)[C@@H](O)[C@](C)([C@@]2(CO)[C@H](O)C1=O)[C@]31CO1` [NIV, nivalenol], for which the “conversion into glutathione adducts” value in experiment [1] is on record as “efficiently catalyzed into glutathione adducts”.
Consider `CC1=C[C@H]2O[C@@H]3[C@H](O)C[C@](C)([C@@]2(CO)[C@H](O)C1=O)[C@]31CO1` [DON, deoxynivalenol], for which the “conversion into glutathione adducts” value in experiment [1] is given as “efficiently catalyzed into glutathione adducts”.
Regarding `CC(=O)OC[C@]12[C@H](O)C(=O)C(C)=C[C@H]1O[C@@H]1[C@H](O)C[C@@]2(C)[C@]12CO2` [15-ADON, 15-acetyl-deoxynivalenol], in experiment [1], the “conversion into glutathione adducts” value is reported as “efficiently catalyzed into glutathione adducts”.

B1: ThFhb7: de-epoxidase from Thinopyrum ponticum; polypeptide having epoxy group-removing catalytic activity, amino acid sequence SEQ ID NO: 36, gene SEQ ID NO: 1 (protein, listed as Elytrigia ponticum)
chain: MATSASTSTPIIPTAIAGAPPVAGTCCAVAPTLSALALAPLAVPTTTTTVLMPAISSVAASLAVPACALPAAGSAPATLPIIHAPATASLVGASPAIAATLGATTPASGAGALPPPGLLATAVGAAMPGLLIPLSGIAASPGLAATAAPASAVAAAPTAHVGLMVHGLPLAPATAAVTLAGPVAAAGLSSTAALGMVGGAAALMMGSLAAMLGALAALPALAASGPPLLGGAATTAAMIVGGTLAMMAATLPVSGTGGAAACHGAIPGGLHAALALTAGVL
Turning to B1, in experiment [2], the “number of diseased spikelets vs control receptor material” value is recorded as “significantly less”. For the same molecule, the “diseased spot area on leaves vs KN199” value in experiment [3] is listed as “significantly reduced”. Further, the “disease spot area of ex-vivo leaves vs receptor material” value in experiment [4] is on record as “significantly reduced”.
